According to EP1319663A1, “Antidepressant folic -, folinic- and glutamic-acid lithium salts” (Dospharma S.A., priority 2001, dated 2003):

Tests used:
[1] = Solubility of the lithium salts; format: physicochemical; conditions: solvents as named in the value
[2] = tested on: rats rendus dépressifs; experiment: Despair test in rat (first depression model); format: in vivo; conditions: dose de 10 mg; per os, twice daily, eight days
Text: (§1) L'activité antidépressive du mélange folate de lithium - glutamate de lithium a été étudiée sur deux modèles de rats rendus dépressifs. On a utilisé comme molécule de référence, la desméthylimipramine (DMI) et comme produit de comparaison un mélange de carbonate de lithium, d'acide folique et d'acide glutamique dans les mêmes proportions que l'association selon l'invention. Les traitements ont été poursuivis per os avec administration biquotidienne durant huit jours.
Le premier modèle utilisé est le test du désespoir chez le rat (Despair Test). Les rats sont placés pour ce test dans une cuve d'eau tiédie à 27°C sans possibilité de s'échapper. Après une nage de quelques minutes, les animaux s'immobilisent et le temps moyen d'immobilité est chronométré. Il correspond à la phase de dépression. La DMI (antidépresseur de référence) à la dose de 10 mg diminue de 50 % ce temps d'immobilisation. Une courbe effet-dose a été établie avec l'association folate de lithium-glutamate de lithium. Un effet est observé dès la dose de 1 mg/kg. Il est maximum avec une dose de 20 mg/kg. A titre de comparaison, le lithium administré, sous forme de carbonate de lithium avec un mélange d'acide folique et d'acide glutamique, est moins actif sur ce modèle. On constate une potentialisation des effets du lithium lorsqu'il est administré sous forme de folate de lithium et de glutamate de lithium.

[3] = tested on: rats rendus dépressifs; experiment: Modified one-way avoidance test in rat (second depression model); format: in vivo; conditions: dose de 1 mg/kg; per os, twice daily, eight days
Text: as §1
Le second test pratiqué est un test à voie unique (one-way)modifié. Dans un premier temps on apprend aux rats à passer d'un compartiment à un autre pour éviter un choc électrique. Les rats sélectionnés qui donnent systématiquement la réponse d'évitement sont placés dans un système à quatre compartiments avec retour au premier compartiment. Les animaux apprennent à éviter le choc électrique en passant du compartiment I à II, puis II à III et […]. Le passage de IV vers I pose un problème puisque les rats reconnaissent (ou sentent) le point de départ.
Les rats s'immobilisent en position de « freezing » en dépit des décharges électriques qu'ils reçoivent. Le temps requis pour amener l'immobilisation correspond à une phase de dépression.

Molecule	solubilité [1]	diminution du temps d'immobilisation [2]	effet sur le temps d'immobilisation (freezing) [3]
folate de lithium	solubles dans l'eau et les solvants hydroxylés	–	–
CNCCCN1c2ccccc2CCc2ccccc21 [DMI, desméthylimipramine]	–	50%	supprime complètement ce temps d'immobilisation
folinate de lithium [folinate lithié]	solubles dans l'eau et les alcools	–	–
